Data reported in patent publication US12693289B2, “Application of compounds in the preparation of reagents for down-regulation of RUNX2” (Geneheal Biotechnology Co., Ltd., priority 2020, dated 2026).

Key:
RUNX2 [1] = experiment: Computational studies and preliminary experimental studies of related disease models: Runx2 expression; settings: general statement
RUNX2 mRNA [2] = experiment: Animal testing (intraperitoneal injection): RUNX2 mRNA in mouse liver tissue by qPCR; type: in vivo, C57BL/6 male mice; settings: mice, 40 mg/kg intraperitoneal injection, 4 consecutive days, liver collected 48 hours after last injection, FIG. 6
Description: • Drug: Fostamatinib MCE(HY-13038A) • Mice: 8-week-old C57BL/6 male mice • Concentration of administration: 40 mg/kg • Mode of administration: intraperitoneal injection
Experimental steps: mice are randomly divided into two groups, experimental group (fostamatinib) and control group (mock), before daily experiments, a certain amount of fostamatinib is accurately weighted and dissolve in 0.5% CMC ([…] cellulose), fully pipetted into a uniform suspension, the concentration of 4 mg/ml, and ready for use. According to the injection volume of 100 ul/10 g per mouse, the intraperitoneal injection was carried out for 4 consecutive days. The mouse liver tissue was collected 48 hours after the last injection, RNA was extracted, and the mRNA expression level of RUNX2 was detected by real-time fluorescence quantitative PCR (qPCR).

RUNX2 mRNA [3] = experiment: RUNX2 mRNA expression by qPCR in lung cancer cell H1299; type: cell-based; settings: H1299 cells
Description: (§1) Cells are seeded in medium dishes (6 cm), cultured overnight, when the cell confluency is 80%, the original medium is discarded, PBS rinses the cells, and then replaced with Fostamatinib containing a final concentration of 10 uM or other concentrations, after 6-12 hours, the cells are harvested, RNA and protein liquid are extracted, and the protein and mRNA expression changes of RUNX2 are detected by Western blot and qPCR experiments, respectively.

RUNX2 mRNA [4] = experiment: RUNX2 mRNA expression by qPCR in lung cancer cells A549; type: cell-based
Description: as §1

RUNX2 [5] = experiment: RUNX2 protein expression by Western blot in lung cancer cell H1299; type: cell-based; settings: H1299 cells
Description: as §1

RUNX2 [6] = experiment: RUNX2 protein expression by Western blot in hepatoma cells BEL-7402; type: cell-based; settings: BEL-7402 cells, 0, 2.5, 5 and 10 uM for 6 h, FIG. 5
Description: as §1

RUNX2 [7] = experiment: RUNX2 protein expression by Western blot in lung cancer cells A549; type: cell-based
Description: as §1

[8] = treated 8 hours, Fostamatinib 10 uM or other concentrations, FIG. 2
[9] = treated 6 hours, antibody changed, FIG. 3
[10] = treated 8 hours, Fostamatinib 10 uM or other concentrations, FIG. 1

With `COc1ccc2[nH]cc(CCNC(C)=O)c2c1` [melatonin, Melatonin] the “expression of Runx2” value (RUNX2 [1]) was “significantly down-regulate”.
`COc1cc(Nc2ncc(F)c(Nc3ccc4c(n3)N(COP(=O)(O)O)C(=O)C(C)(C)O4)n2)cc(OC)c1OC` [Fostamatinib] was tested, and the “mRNA expression level of RUNX2 in liver tissue” value (RUNX2 mRNA [2]) was “significantly reduce”, the “mRNA level of RUNX2” value (RUNX2 mRNA [3]; 6 hours, FIG. 4) was “significantly reduced” and the “mRNA expression level of RUNX2” value (RUNX2 mRNA [3]; [8]) was “decreases significantly”. The “expression of Runx2” value (RUNX2 [1]) was “significantly down-regulate”, the “mRNA level of RUNX2” value (RUNX2 mRNA [4]; 6 hours, FIG. 4) was “significantly reduced” and the “mRNA expression level of RUNX2” value (RUNX2 mRNA [4]; [8]) was “decreases significantly”. The “protein expression level of RUNX2” value (RUNX2 [5]; [9]) was “down-regulated a certain trend”, the “protein expression level of RUNX2” value (RUNX2 [5]; [10]) was “tends to decrease” and the “expression level of RUNX2 protein” value (RUNX2 [6]) was “significantly reduced and dose-dependent”. The “protein expression level of RUNX2” value (RUNX2 [7]; [9]) was “down-regulated a certain trend” and the “protein expression level of RUNX2” value (RUNX2 [7]; [10]) was “tends to decrease”.
`CNC(=O)c1cc(Oc2ccc(NC(=O)Nc3ccc(Cl)c(C(F)(F)F)c3)c(F)c2)ccn1` [Regorafenib] was tested, and the “expression of Runx2” value (RUNX2 [1]) was “significantly down-regulate”.
